Structures are written as SMILES. Where two headings read alike, the source gives them in different places.

The values that follow come from patent US20250154109A1, “SODIUM CHANNEL BLOCKING COMPOUNDS, DERIVATIVES THEREOF, AND METHODS OF THEIR USE” (LATIGO BIOTHERAPEUTICS, INC, priority 2022, published 2025).

The assay has as its target human Nav1.8 (Homo sapiens, UniProt Q9Y5Y9). Put plainly: SyncroPatch384PE assay (automated patch clamp). Type of assay: cell-based. Particulars: human Nav1.8/b3 CHO cells. (In general: In patch-clamp work, channel activity is measured electrically.)
[1] abbreviates: inactivated state block (P2 measurement), read-out: P2 IC50.
Where [2] appears, read: resting state block (P1 measurement), read-out: P1 IC50.

human Nav1.8, sequence (Q9Y5Y9 whole entry): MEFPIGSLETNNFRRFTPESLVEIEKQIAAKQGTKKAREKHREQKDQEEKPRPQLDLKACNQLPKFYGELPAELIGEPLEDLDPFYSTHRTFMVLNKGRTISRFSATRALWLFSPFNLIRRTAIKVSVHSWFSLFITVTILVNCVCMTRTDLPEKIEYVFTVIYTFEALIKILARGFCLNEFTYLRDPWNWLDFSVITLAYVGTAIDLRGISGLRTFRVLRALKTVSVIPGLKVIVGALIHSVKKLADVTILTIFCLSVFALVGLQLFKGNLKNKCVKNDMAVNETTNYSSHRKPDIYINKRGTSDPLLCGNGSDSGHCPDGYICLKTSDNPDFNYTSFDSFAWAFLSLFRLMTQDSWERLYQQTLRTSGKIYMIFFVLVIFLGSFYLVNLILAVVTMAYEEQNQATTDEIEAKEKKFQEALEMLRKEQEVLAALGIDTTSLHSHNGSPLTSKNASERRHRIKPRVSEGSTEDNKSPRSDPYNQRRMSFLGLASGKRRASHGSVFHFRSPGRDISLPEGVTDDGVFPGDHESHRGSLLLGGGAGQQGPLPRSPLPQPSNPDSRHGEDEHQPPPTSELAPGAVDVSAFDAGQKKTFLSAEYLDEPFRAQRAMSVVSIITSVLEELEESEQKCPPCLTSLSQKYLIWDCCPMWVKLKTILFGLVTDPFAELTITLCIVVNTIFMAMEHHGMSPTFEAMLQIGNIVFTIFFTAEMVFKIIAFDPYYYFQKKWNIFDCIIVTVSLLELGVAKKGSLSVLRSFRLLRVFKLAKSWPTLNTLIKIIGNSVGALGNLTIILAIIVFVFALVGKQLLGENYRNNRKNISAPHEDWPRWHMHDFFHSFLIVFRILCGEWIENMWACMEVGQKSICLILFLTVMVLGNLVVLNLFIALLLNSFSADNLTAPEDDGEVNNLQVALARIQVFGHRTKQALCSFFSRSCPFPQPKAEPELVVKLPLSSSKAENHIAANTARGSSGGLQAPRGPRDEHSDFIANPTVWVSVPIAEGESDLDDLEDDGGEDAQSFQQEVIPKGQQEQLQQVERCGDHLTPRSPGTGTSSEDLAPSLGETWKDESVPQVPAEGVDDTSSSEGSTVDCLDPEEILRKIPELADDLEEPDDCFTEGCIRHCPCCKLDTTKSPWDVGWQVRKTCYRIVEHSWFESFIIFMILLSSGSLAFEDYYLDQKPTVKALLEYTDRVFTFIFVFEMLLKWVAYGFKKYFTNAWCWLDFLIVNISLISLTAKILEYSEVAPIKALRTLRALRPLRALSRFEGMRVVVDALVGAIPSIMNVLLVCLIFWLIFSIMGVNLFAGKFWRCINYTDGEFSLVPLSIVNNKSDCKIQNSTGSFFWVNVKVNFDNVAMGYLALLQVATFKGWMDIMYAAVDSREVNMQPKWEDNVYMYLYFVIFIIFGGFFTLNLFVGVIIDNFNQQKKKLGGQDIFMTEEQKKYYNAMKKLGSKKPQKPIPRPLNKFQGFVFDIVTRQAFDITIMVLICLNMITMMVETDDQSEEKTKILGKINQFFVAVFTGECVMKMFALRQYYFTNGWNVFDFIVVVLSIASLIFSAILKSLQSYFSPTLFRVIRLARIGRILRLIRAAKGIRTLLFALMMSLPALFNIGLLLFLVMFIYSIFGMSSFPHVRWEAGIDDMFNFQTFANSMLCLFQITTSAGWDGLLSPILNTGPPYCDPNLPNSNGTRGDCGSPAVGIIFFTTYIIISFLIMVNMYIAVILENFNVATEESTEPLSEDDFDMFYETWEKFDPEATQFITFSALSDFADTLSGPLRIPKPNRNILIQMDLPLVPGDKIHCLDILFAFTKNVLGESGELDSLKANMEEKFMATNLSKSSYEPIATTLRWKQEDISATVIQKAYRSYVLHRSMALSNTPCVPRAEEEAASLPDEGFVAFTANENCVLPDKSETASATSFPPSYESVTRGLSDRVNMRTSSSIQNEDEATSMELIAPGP

The IC50 is the point on the concentration scale where inhibition reaches its midpoint. With `Cc1c(-c2cnn(C)c2)nnc(N2CCCC(F)(F)CC2)c1C(=O)NC12CC(C(N)=O)(C1)C2` [Example 141, N-(3-carbamoylbicyclo[1.1.1]pentan-1-yl)-3-(4,4-difluoroazepan-1-yl)-5-methyl-6-(1-methyl-1H-pyrazol-4-yl)pyridazine-4-carboxamide], the 50% inhibitory concentration (IC50) runs as follows: under setting [1], not above 5 nM; under setting [2], not above 5 nM.

As to `Cc1c(-c2ccc(Cl)cc2)cnc(N2CCCC(F)(F)CC2)c1C(=O)Nc1cccc([S@](C)(=N)=O)c1` [Example 67, (R)-5-(4-chlorophenyl)-2-(4,4-difluoroazepan-1-yl)-4-methyl-N-(3-(S-methylsulfonimidoyl)phenyl)nicotinamide], the IC50 is not above 5 nM under setting [1] and not above 5 nM under setting [2].

For the molecule `Cc1nn(C)cc1-c1cnc(N2CCCC(F)(F)CC2)c(C(=O)Nc2cccc([S@](C)(=N)=O)c2)c1C` [Example 146, (R)-2-(4,4-difluoroazepan-1-yl)-5-(1,3-dimethyl-1H-pyrazol-4-yl)-4-methyl-N-(3-(S-methylsulfonimidoyl)phenyl)nicotinamide], the IC50 by setting is: under setting [1], more than 200 nM; under setting [2], more than 200 nM.

For the molecule `Cc1nc(N2CCCC(F)(F)CC2)c(C(=O)Nc2cccc([S@](C)(=N)=O)c2)c(C)c1C(F)(F)F` (single isomer, unassigned) [Example 186], the IC50 is not above 5 nM under setting [1] and not above 5 nM under setting [2].

Turning to `Cc1cc(-c2cnn(C)c2)nc(N2CCCC(F)(F)CC2)c1C(=O)Nc1cccc([S@](C)(=N)=O)c1` [Example 151, (R)-2-(4,4-difluoroazepan-1-yl)-4-methyl-6-(1-methyl-1H-pyrazol-4-yl)-N-(3-(S-methylsulfonimidoyl)phenyl)nicotinamide], the IC50 by setting is: under setting [1], 100 to 200 nM; under setting [2], 100 to 200 nM.

For `Cc1c(C(F)(F)F)cnc(N2CCCC(F)(F)CC2)c1C(=O)Nc1cccc([S@@](C)(=N)=O)c1` [Example 163, (S)-2-(4,4-difluoroazepan-1-yl)-4-methyl-N-(3-(S-methylsulfonimidoyl)phenyl)-5-(trifluoromethyl)nicotinamide], the half-maximal inhibitory concentration (IC50) by setting is: under setting [1], not above 5 nM; under setting [2], not above 5 nM.

Take `C[S@@](=N)(=O)c1cccc(NC(=O)c2cc(Cl)c(C(F)(F)F)cc2N2CCO[C@H](C(F)(F)F)C2)c1` [Example 215, 5-chloro-N-(3-((R)—S-methylsulfonimidoyl)phenyl)-4-(trifluoromethyl)-2-((S)-2-(trifluoromethyl)morpholino)benzamide]: the IC50 is, setting by setting: under setting [1], 5 to 50 nM; under setting [2], 5 to 50 nM.

For `Cc1c(-c2cnn(C)c2)cnc(N2CCCC(F)(F)CC2)c1C(=O)Nc1cccc([S@@](C)(=O)=NC(=O)C(N)C(F)(F)F)c1` (stereo partly drawn) [Example 174, N-(3-((R)-N-(2-amino-3,3,3-trifluoropropanoyl)-S-methylsulfonimidoyl)phenyl)-2-(4,4-difluoroazepan-1-yl)-4-methyl-5-(1-methyl-1H-pyrazol-4-yl)nicotinamide], the IC50 runs as follows: under setting [1], 5 to 50 nM; under setting [2], 5 to 50 nM.

On to `Cc1c(-c2cnn(C)c2)cnc(N2CCCC(F)(F)CC2)c1C(=O)Nc1ccc(F)c([S@@](C)(=N)=O)c1` [Example 213, (S)-2-(4,4-difluoroazepan-1-yl)-N-(4-fluoro-3-(S-methylsulfonimidoyl)phenyl)-4-methyl-5-(1-methyl-1H-pyrazol-4-yl)nicotinamide], for which the IC50 under setting [1] lay in the range of 100 to 200 nM and the concentration for half-maximal inhibition (IC50) under setting [2] was in the range of 100 to 200 nM.

As for `Cc1nc(N2CCOCC2)nc(N2CCCC(F)(F)CC2)c1C(=O)Nc1cccc([S@](C)(=N)=O)c1` [Example 155, (R)-4-(4,4-difluoroazepan-1-yl)-6-methyl-N-(3-(S-methylsulfonimidoyl)phenyl)-2-morpholinopyrimidine-5-carboxamide], the half-inhibitory concentration (IC50) is more than 200 nM under setting [1] and more than 200 nM under setting [2].

Take `Cc1c(C(F)(F)F)cnc(N2CCCC(F)(F)CC2)c1C(=O)Nc1cccc([S@@](C)(=O)=NC(=O)[C@H](C)O)c1` [Example 192, 2-(4,4-difluoroazepan-1-yl)-N-(3-((R)-N-((S)-2-hydroxypropanoyl)-S-methylsulfonimidoyl)phenyl)-4-methyl-5-(trifluoromethyl)nicotinamide]: the 50% inhibitory concentration (IC50) was not above 5 nM under setting [1] and not above 5 nM under setting [2].

With `Cc1cc(C(F)(F)F)nc(N2CCCC(F)(F)CC2)c1C(=O)Nc1cccc([S@@](C)(=N)=O)c1` [Example 34, (S)-2-(4,4-Difluoroazepan-1-yl)-4-methyl-N-(3-(S-methylsulfonimidoyl)phenyl)-6-(trifluoromethyl)nicotinamide], the IC50 is not above 5 nM under setting [1] and not above 5 nM under setting [2].

On to `Cc1c(-c2cnn(C)c2)cnc(N2CCCC(F)(F)CC2)c1C(=O)Nc1cccc([S@@](C)(=O)=NC(=O)[C@@H](C)N)c1` [Example 75, N-(3-((R)-N-(D-alanyl)-S-methylsulfonimidoyl)phenyl)-2-(4,4-difluoroazepan-1-yl)-4-methyl-5-(1-methyl-1H-pyrazol-4-yl)nicotinamide], for which the IC50 runs as follows: under setting [1], 5 to 50 nM; under setting [2], 5 to 50 nM.

Regarding `COc1ccc(-c2nnc(N3CCCC(F)(F)CC3)c(C(=O)Nc3cccc([S@@](C)(=N)=O)c3)c2C)cc1` (single isomer, unassigned) [Example 137], the IC50 is more than 200 nM under setting [1] and more than 200 nM under setting [2].

In the case of `Cc1c(Br)cnc(N2CCCC(F)(F)CC2)c1C(=O)Nc1cccc(S(C)(=N)=O)c1` (stereo not drawn) [Example 86, 5-bromo-2-(4,4-difluoroazepan-1-yl)-4-methyl-N-(3-(S-methylsulfonimidoyl)phenyl)nicotinamide], the IC50 was not above 5 nM under setting [1] and not above 5 nM under setting [2].

Take `Cc1c(-c2cnn(C)c2)cnc(N2CCCC(F)(F)CC2)c1C(=O)Nc1cccc([S@@](C)(=O)=NC(=O)[C@@H](C)O)c1` [Example 230, 2-(4,4-difluoroazepan-1-yl)-N-(3-((R)-N-((R)-2-hydroxypropanoyl)-S-methylsulfonimidoyl)phenyl)-4-methyl-5-(1-methyl-1H-pyrazol-4-yl)nicotinamide]: the half-maximal inhibitory concentration (IC50) is 5 to 50 nM under setting [1] and 5 to 50 nM under setting [2].

As for `Cc1c(C(F)(F)F)nnc(N2CCCC(F)(F)CC2)c1C(=O)Nc1cccc([S@@](C)(=O)=NC(=O)[C@@H](C)N)c1` [Example 183, N-(3-((R)-N-(D-alanyl)-S-methylsulfonimidoyl)phenyl)-3-(4,4-difluoroazepan-1-yl)-5-methyl-6-(trifluoromethyl)pyridazine-4-carboxamide], the IC50 under setting [1] was not above 5 nM and the IC50 under setting [2] is not above 5 nM.

With `Cc1c(-c2ccc(C#N)cc2)nnc(N2CCCC(F)(F)CC2)c1C(=O)Nc1cccc([S@](C)(=N)=O)c1` [Example 154, (R)-6-(4-cyanophenyl)-3-(4,4-difluoroazepan-1-yl)-5-methyl-N-(3-(S-methylsulfonimidoyl)phenyl)pyridazine-4-carboxamide], the 50% inhibitory concentration (IC50) runs as follows: under setting [1], 50 to 100 nM; under setting [2], 50 to 100 nM.

`Cc1c(Br)cnc(N2CCCC(F)(F)CC2)c1C(=O)Nc1cccc([S@@](C)(=N)=O)c1` [Example 145, (S)-5-bromo-2-(4,4-difluoroazepan-1-yl)-4-methyl-N-(3-(S-methylsulfonimidoyl)phenyl)nicotinamide]: the 50% inhibitory concentration (IC50) under setting [1] is not above 5 nM and the IC50 under setting [2] is not above 5 nM.

Take `Cc1c(N2CC3(COC3)C2)cnc(N2CCCC(F)(F)CC2)c1C(=O)Nc1cccc([S@](C)(=N)=O)c1` [Example 116, (R)-2-(4,4-difluoroazepan-1-yl)-4-methyl-N-(3-(S-methylsulfonimidoyl)phenyl)-5-(2-oxa-6-azaspiro[3.3]heptan-6-yl)nicotinamide]: the IC50 reads like this: under setting [1], more than 200 nM; under setting [2], more than 200 nM.

As to `Cc1nc(N2CCN(C)CC2)nc(N2CCCC(F)(F)CC2)c1C(=O)Nc1cccc([S@](C)(=N)=O)c1` [Example 157, (R)-4-(4,4-difluoroazepan-1-yl)-6-methyl-2-(4-methylpiperazin-1-yl)-N-(3-(S-methylsulfonimidoyl)phenyl)pyrimidine-5-carboxamide], the IC50 was more than 200 nM under setting [1] and more than 200 nM under setting [2].

Regarding `Cc1c(N2CC(F)(F)C2)cnc(N2CCCC(F)(F)CC2)c1C(=O)Nc1cccc([S@](C)(=N)=O)c1` [Example 149, (R)-2-(4,4-difluoroazepan-1-yl)-5-(3,3-difluoroazetidin-1-yl)-4-methyl-N-(3-(S-methylsulfonimidoyl)phenyl)nicotinamide], the IC50 lay within 5 to 50 nM under setting [1] and 5 to 50 nM under setting [2].

On to `Cc1c(-c2cnn(C)c2)cnc(N2CCCC(F)(F)CC2)c1C(=O)Nc1cccc([S@@](C)(=O)=NC(=O)C2COC2)c1` [Example 54, (R)-2-(4,4-difluoroazepan-1-yl)-4-methyl-5-(1-methyl-1H-pyrazol-4-yl)-N-(3-(S-methyl-N-(oxetane-3-carbonyl)sulfonimidoyl)phenyl)nicotinamide], for which the IC50 lay in the range of 5 to 50 nM under setting [1] and 5 to 50 nM under setting [2].

On to `Cc1nc(N2CCC3(CC2)CC3)c(C(=O)Nc2cccc([S@](C)(=N)=O)c2)cc1Cl` [Example 26, (R)-5-Chloro-6-methyl-N-(3-(S-methylsulfonimidoyl)phenyl)-2-(6-azaspiro[2.5]octan-6-yl)nicotinamide], for which the IC50 is not above 5 nM under setting [1] and not above 5 nM under setting [2].

As to `Cc1c(C(F)(F)F)cnc(N2CCCC(F)(F)CC2)c1C(=O)Nc1cccc([S@@](C)(=O)=NC(=O)CN)c1` [Example 181, (R)-2-(4,4-difluoroazepan-1-yl)-N-(3-(N-glycyl-S-methylsulfonimidoyl)phenyl)-4-methyl-5-(trifluoromethyl)nicotinamide], the IC50 is not above 5 nM under setting [1] and not above 5 nM under setting [2].

In the case of `Cc1c(C#N)c(C#N)nc(N2CCCC(F)(F)CC2)c1C(=O)Nc1cccc([S@](C)(=N)=O)c1` [Example 170, (R)-5,6-dicyano-2-(4,4-difluoroazepan-1-yl)-4-methyl-N-(3-(S-methylsulfonimidoyl)phenyl)nicotinamide], the IC50 under setting [1] lay within 5 to 50 nM and the IC50 under setting [2] is 5 to 50 nM.

On to `Cc1c(C2CNC2)cnc(N2CCCC(F)(F)CC2)c1C(=O)Nc1cccc(S(C)(=N)=O)c1` (stereo not drawn) [Example 173, 5-(azetidin-3-yl)-2-(4,4-difluoroazepan-1-yl)-4-methyl-N-(3-(S-methylsulfonimidoyl)phenyl)nicotinamide], for which the IC50 runs as follows: under setting [1], 100 to 200 nM; under setting [2], more than 200 nM.
